Laboratory results from ChEMBL document CHEMBL2363022, “Malaria Box Schistosomiasis Screening Data” (2013).

How the values were obtained:
Format in all cases: functional
Design in all cases: scale not given here
Schistosoma mansoni [1] = tested on: Schistosoma mansoni
Schistosoma mansoni [2] = tested on: Schistosoma mansoni; remark: listed apart in the source
Schistosoma mansoni [3] = tested on: Schistosoma mansoni; remark: listed apart in the source

Structure (SMILES)	Toxicity (Schistosoma mansoni [1])	Toxicity (Schistosoma mansoni [2])	Toxicity (Schistosoma mansoni [3])
Cc1ccc2c(C)nc(Nc3nc(C)cc(-c4ccccc4)n3)nc2c1	0	0	0
COc1ccc(CN2CCN(Cc3ccccc3)CC2)c(O)c1	0	0	0
CCOC(=O)c1cnc2c(C)cc(C)cc2c1Nc1ccc(OC)c(OC)c1	0	2	0
Oc1ccc2ccccc2c1CNc1nc2ccccc2[nH]1	2	0	0
O=C(NCC1Cc2cccc(-c3ccncc3)c2O1)c1csc2c1CCCC2 (configuration not stated)	0	0	0
OC1=C2C(=Nc3ccccc3SC2c2ccccc2)c2ccccc21 (configuration not stated)	0	0	0
COC(=O)c1ccc(C2C3=C(O)CC(c4ccc(F)cc4)CC3=Nc3ccccc3N2C(=O)c2ccccc2)cc1 (configuration not stated)	0	2	1
Clc1ccc2[nH]c3c(NCCCN4CCOCC4)ncnc3c2c1	0	0	0
CCN1CCN(c2c(C(=O)c3ccccc3)cnc3cc(OC)c(OC)cc23)CC1	0	0	0
Cc1ccc(Nc2nc(N)c3ccccc3n2)cc1Cl	2	2	2
CCCCCCn1c(=N)n(CC(O)COc2cccc(C)c2)c2ccccc21.Cl (configuration not stated)	4	4	4
Cc1cc(NC(=O)C2c3ccccc3C(=O)N(CC(C)C)C2c2cccs2)no1 (configuration not stated)	0	0	0
CCCOCc1cc(CN2CCN(c3cccc(Cl)c3)CC2)c(O)c2ncccc12	3	4	4
COc1cc(C(=O)Nc2nc3c(cc4c5c(cccc53)CC4)s2)cc(OC)c1OC	0	0	0
CCCCCCc1cc(O)c2c3c(c(=O)oc2c1)CCC(C)C3 (configuration not stated)	0	2	0
CCOC(=O)c1c[nH]c2c(CC)cccc2c1=O	0	0	3
O=c1cc(NC2CCN(CCCc3ccccc3)CC2)c2cc(Cl)ccc2o1	2	1	2
FC(F)(F)c1cccc(Nc2nc(-c3ccccc3)nc3ncccc23)c1	0	0	0
CN1C=C(c2ccc3ccccc3n2)C(c2c[nH]c3ccccc23)c2ccccc21 (configuration not stated)	0	0	0
COc1ccc(C)c2sc(N(Cc3cccnc3)C(=O)c3ccc(C#N)cc3)nc12	0	0	0
COc1cc(-c2nc(-c3ccccc3)c(-c3ccccc3)[nH]2)cc(OC)c1O	0	0	0
Nc1ccc(-c2nc3cc(Oc4ccc(Oc5ccc6[nH]c(-c7ccc(N)cc7)nc6c5)cc4)ccc3[nH]2)cc1	0	0	2
CCN1CCCC1CNc1[nH]cnc2c3cc(Cl)ccc3nc1-2 (configuration not stated)	0	0	0
COc1cc(C(=O)ON=C(N)Cc2cccc3ccccc23)cc(OC)c1OC	0	3	4
c1ccc(CNc2nc(Nc3ccccc3)nc3ccccc23)cc1	2	2	2

Structure (SMILES)	Toxicity (Schistosoma mansoni [1])	Toxicity (Schistosoma mansoni [2])	Toxicity (Schistosoma mansoni [3])
CC(C)(C)C(=O)Nc1ccc(C(=O)Nc2cccc(-c3nc4ccccc4[nH]3)c2)cc1	0	0	2
COc1ccc(C(=O)Nc2nonc2-c2ccc(OC)c(OC)c2)cc1Cl	0	0	0
CN(C)c1ccc(N2C(N)=NC(N)=NC2(C)C)cc1	0	0	0
CCC(c1ccccc1)c1nn2c(-c3cccs3)nnc2s1 (configuration not stated)	0	0	0
CCCn1c(=N)c(C(=O)NC2CCCCC2)cc2c(=O)n3cccc(C)c3nc21	0	0	0
COc1cc(C(=O)Nc2ccc(-c3nc4ccccc4[nH]3)cc2)cc(OC)c1OC	0	0	0
COc1cc(OC)c(N(C)C(=O)c2cc3c(s2)-c2ccccc2S(=O)(=O)C3)cc1Cl	0	0	0
O=C1c2ccc3c4c(ccc(c24)C(=O)N1CCCCO)C(=O)N(CCCCO)C3=O	0	0	4
Cc1ccccc1OCCSc1nc2ccc(NC(=O)c3cccs3)cc2s1	0	0	0
COc1ccc(-c2nonc2NC(=O)c2cccc(Cl)c2)cc1OC	0	0	0
Cc1ccc(S(=O)(=O)c2c(COC(=O)c3cccc(C)c3)c(-c3ccccc3)nn2C)cc1	0	0	0
CCCN(CCC)CCCNC(=O)c1cc2c(-c3ccc(OC)c(OC)c3)nn(C)c2s1	0	0	3
Cc1sc(NC(=O)c2ccco2)c(C(c2cccnc2)N2CCC(Cc3ccccc3)CC2)c1C (configuration not stated)	1	4	4
COc1ccc(C2Sc3ccccc3N=C3C2=C(O)c2ccccc23)cc1 (configuration not stated)	0	0	0
Br.Cc1ccc(C)c(-c2csc(Nc3ccc(C)c(C)c3)n2)c1	0	1	0
CCOC(=O)C1(Cc2ccccc2)CCN(Cc2cccc(OC)c2O)CC1	1	1	2
CCOc1ccccc1CN1CCc2nc3cc(C(C)(C)C)nn3c(O)c2C1	0	2	2
O=C(Nc1ccc(CN2CCOCC2)cc1)c1ccc(-c2ccc(Br)cc2)o1	0	0	0
O=C(CCc1ccco1)NC1CCN(CC2(c3ccc(Cl)cc3)CCC2)CC1	0	0	0
CN1c2ccccc2N(C)C1c1ccc2c(c1)OCO2	1	0	0
CC1(c2ccccc2)Nc2ccccc2-c2nc3ccccc3n21 (configuration not stated)	0	0	0
COc1ccc(CCNC(=O)c2cc(S(=O)(=O)N3CC(C)CC(C)C3)ccc2Sc2ccc(F)cc2)cc1OC (configuration not stated)	4	4	4
COc1cccc(C(=O)Nc2ccc(-c3nc4ccccc4[nH]3)cc2)c1	0	0	0
CCc1ccc(CNCC(O)c2ccccc2)cc1.Cl (configuration not stated)	1	0	1
